For 28 compounds, inhibition and IC50 results are on record in ChEMBL document CHEMBL2429823, “Synthesis and biological evaluation of novel 3,4-diaryl lactam derivatives as triple reuptake inhibitors” (Bioorg Med Chem Lett, 2013).

The target of assay [1] is T1, Sodium-dependent dopamine transporter (Homo sapiens, UniProt Q01959). Briefly: Displacement of [3H]Win35428 from human recombinant DAT over-expressed in CHOK1 cells at 10 uM. Format: cell-based. The settings on record: CHO-K1. A general note: Loss of bound radioactivity is the signal in a displacement assay; it reports binding, not function.
T1 sequence (Q01959 whole entry): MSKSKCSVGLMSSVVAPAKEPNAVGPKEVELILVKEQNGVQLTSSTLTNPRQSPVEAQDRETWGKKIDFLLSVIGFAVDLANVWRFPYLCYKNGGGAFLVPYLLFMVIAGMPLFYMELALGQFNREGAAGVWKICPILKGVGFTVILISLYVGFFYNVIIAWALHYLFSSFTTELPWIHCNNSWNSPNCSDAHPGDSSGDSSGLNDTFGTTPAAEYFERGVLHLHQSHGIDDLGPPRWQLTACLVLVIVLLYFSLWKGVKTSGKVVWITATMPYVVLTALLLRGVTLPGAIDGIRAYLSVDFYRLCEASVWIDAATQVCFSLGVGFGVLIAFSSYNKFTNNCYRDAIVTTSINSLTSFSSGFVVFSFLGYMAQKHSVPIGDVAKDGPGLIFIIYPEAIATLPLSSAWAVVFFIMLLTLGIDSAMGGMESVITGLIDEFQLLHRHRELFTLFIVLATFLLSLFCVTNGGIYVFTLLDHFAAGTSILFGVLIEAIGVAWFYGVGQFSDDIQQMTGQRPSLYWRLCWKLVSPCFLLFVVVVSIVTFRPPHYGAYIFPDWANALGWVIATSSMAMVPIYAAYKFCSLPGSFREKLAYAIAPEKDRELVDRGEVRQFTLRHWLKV
The target of assay [2] is T2, Sodium-dependent noradrenaline transporter (Homo sapiens, UniProt P23975). Briefly: Displacement of [3H]Nisoxetine from human recombinant NET over-expressed in dog MDCK cells at 10 uM. Format: cell-based.
T2 sequence (P23975 whole entry): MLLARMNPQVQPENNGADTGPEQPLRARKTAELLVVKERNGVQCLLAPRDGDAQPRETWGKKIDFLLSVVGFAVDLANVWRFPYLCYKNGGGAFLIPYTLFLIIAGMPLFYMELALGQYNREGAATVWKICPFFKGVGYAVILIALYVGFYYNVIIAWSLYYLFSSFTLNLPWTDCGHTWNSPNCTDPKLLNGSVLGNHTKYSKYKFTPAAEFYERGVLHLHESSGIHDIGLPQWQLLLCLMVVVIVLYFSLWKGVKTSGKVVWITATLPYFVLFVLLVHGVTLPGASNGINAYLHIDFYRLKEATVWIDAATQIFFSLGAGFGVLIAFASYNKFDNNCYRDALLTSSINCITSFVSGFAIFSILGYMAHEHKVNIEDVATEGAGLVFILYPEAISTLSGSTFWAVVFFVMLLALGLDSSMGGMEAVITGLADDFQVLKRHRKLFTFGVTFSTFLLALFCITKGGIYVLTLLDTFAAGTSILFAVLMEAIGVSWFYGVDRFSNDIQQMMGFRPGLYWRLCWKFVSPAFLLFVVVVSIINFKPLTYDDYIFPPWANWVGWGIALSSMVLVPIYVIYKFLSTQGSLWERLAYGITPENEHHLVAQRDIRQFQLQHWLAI
The target in assay [3] is T3, Sodium-dependent serotonin transporter (Homo sapiens, UniProt P31645). As to the kind of experiment: Displacement of [3H]imipramin from human recombinant SERT over-expressed in HEK293 cells at 10 uM. Format: cell-based.
Target sequence in this assay (P31645 whole entry, looked up): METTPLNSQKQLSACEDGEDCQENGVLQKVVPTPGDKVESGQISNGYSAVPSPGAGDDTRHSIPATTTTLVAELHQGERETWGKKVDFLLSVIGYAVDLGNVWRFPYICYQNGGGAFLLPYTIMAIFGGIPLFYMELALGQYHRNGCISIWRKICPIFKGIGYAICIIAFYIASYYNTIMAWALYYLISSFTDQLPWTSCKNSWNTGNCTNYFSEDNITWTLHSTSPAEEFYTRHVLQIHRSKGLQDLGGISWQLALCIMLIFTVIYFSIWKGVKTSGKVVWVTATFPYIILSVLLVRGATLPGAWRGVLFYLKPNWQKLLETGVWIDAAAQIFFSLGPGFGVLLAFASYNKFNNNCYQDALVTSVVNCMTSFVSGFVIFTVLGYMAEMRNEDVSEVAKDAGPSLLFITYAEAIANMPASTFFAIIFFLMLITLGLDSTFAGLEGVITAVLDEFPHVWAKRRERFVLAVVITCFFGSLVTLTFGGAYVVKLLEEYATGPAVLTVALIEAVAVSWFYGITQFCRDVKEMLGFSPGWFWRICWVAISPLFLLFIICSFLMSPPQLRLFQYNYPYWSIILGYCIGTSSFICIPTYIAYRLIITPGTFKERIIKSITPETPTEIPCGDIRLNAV
The target in assay [4] is T3, Sodium-dependent serotonin transporter. The settings on record: HEK293, at 10 µM.
Target sequence in this assay (P31645 whole entry, looked up): as above
Description: Inhibition of human SERT-mediated serotonin uptake expressed in HEK293 cells at 10 uM after 15 mins by fluorescence plate reader analysis
The target in assay [5] is T1, Sodium-dependent dopamine transporter. Briefly: biochemical.
For assay [6], the target named is T2, Sodium-dependent noradrenaline transporter. As to the kind of experiment: biochemical.
Assay [7] concerns the target T3, Sodium-dependent serotonin transporter. As to the kind of experiment: biochemical. The class given is cell-based, HEK293.
Target sequence in this assay (P31645 whole entry): as the sequence (P31645 whole entry, looked up) above

Broadly, the inhibition is how much of the control response was suppressed. By IC50 is commonly meant the concentration that gives 50% inhibition. A low value points to inhibition by little substance. `O=C1NCC(c2ccc(Cl)c(Cl)c2)C1c1ccccc1Cl` (configuration not stated): the inhibition in assay [1] is 100%; in assay [2], 99%; in assay [3], 52%; in assay [4] it was 21.9%. Moreover, the figures for the IC50 in assay [5] and in assay [6] were 8.14 nM and 510 nM, respectively.
For `O=C1NCC(c2ccc(Cl)cc2)C1c1ccc(Cl)c(Cl)c1` (configuration not stated), the inhibition in assay [1] worked out at 96%; in assay [2], 92%; in assay [3] it was 57%; in assay [4], 22.7%. For the same compound, the IC50 in assay [5] came to 281 nM; in assay [6] it was 1900 nM.
Take `O=C1NCC(c2ccccc2Cl)C1c1ccc(Cl)cc1` (configuration not stated): the inhibition in assay [1] turned out to be 51%; in assay [2], 60%; in assay [3], 26%; in assay [4], 8.5%. The compound also gave a concentration for half-maximal inhibition (IC50) in assay [6] of 7620 nM.
On to `O=C1NCC(c2ccc(Cl)cc2)C1c1cccc(Cl)c1` (configuration not stated), for which the inhibition turned out to be 99% in assay [1], 72% in assay [2], 22% in assay [3] and 12.2% in assay [4]. The results for the half-inhibitory concentration (IC50) in assay [5] and in assay [6] were 36.3 nM and 3820 nM, respectively.
As to `Clc1ccc2c(c1Cl)CC[C@H]1NC[C@H](c3ccccc3)[C@@H]21`, the inhibition in assay [1] was 5%; in assay [2], 10%; in assay [3], 9%.
As for `O=C1NCC(c2ccccc2Cl)C1c1ccccc1` (configuration not stated), the inhibition in assay [1] turned out to be 70%; in assay [2], 5%; in assay [3], 23%; in assay [4] it was 19.3%. The compound also returned a 50% inhibitory concentration (IC50) in assay [5] of 2140 nM.
On to `O=C1NCC(c2ccc(Cl)c(Cl)c2)C1c1ccc2ccccc2c1` (configuration not stated), for which the inhibition is 86% in assay [1], 94% in assay [2], 69% in assay [3] and 4.4% in assay [4]. In addition, the half-inhibitory concentration (IC50) in assay [7] worked out at 965 nM; in assay [5] it was 121 nM; in assay [6], 483 nM.
For the compound `O=C1NCC(c2cccc(Cl)c2)C1c1cccc(Cl)c1` (configuration not stated), the inhibition is 98% in assay [1], 59% in assay [2], 26% in assay [3] and 14.3% in assay [4]. The half-maximal inhibitory concentration (IC50) in assay [5] stood at 38.7 nM.
Turning to `O=C1NCC(c2ccc(Cl)cc2)C1c1ccc2ccccc2c1` (configuration not stated), the inhibition is 97% in assay [1], 91% in assay [2], 79% in assay [3] and 26.3% in assay [4]. The concentration for half-maximal inhibition (IC50) came to 6450 nM in assay [7], 160 nM in assay [5] and 1190 nM in assay [6].
As for `Clc1cccc2c1CC[C@H]1NC[C@H](c3ccccc3)[C@@H]21`, the inhibition amounted to 5% in assay [1], 10% in assay [2] and 9% in assay [3].
Consider `O=C1NCC(c2ccccc2Cl)C1c1ccc2ccccc2c1` (configuration not stated), for which the inhibition came to 23% in assay [1], 89% in assay [2], 56% in assay [3] and 4.5% in assay [4]. Moreover, the concentration for half-maximal inhibition (IC50) in assay [6] amounted to 1380 nM.
As to `Clc1ccc2c(c1)CC[C@H]1NC[C@H](c3ccccc3)[C@@H]21`, the figures for the inhibition in assay [1], in assay [2] and in assay [3] were 5%, 10% and 9%, respectively.
Consider `O=C1NCC(c2cccc(Cl)c2)C1c1ccccc1Cl` (configuration not stated), for which the inhibition in assay [1] worked out at 96%; in assay [2], 41%; in assay [3], 39%; in assay [4], 20.2%. The compound further gave an IC50 in assay [5] of 17.3 nM.
Regarding `O=C1NCC(c2cccc(Cl)c2)C1c1ccc(Cl)cc1` (configuration not stated), the inhibition stood at 95% in assay [1], 87% in assay [2], 49% in assay [3] and 38.4% in assay [4]. The IC50 in assay [5] worked out at 33.1 nM; in assay [6] it was 1660 nM.
With `O=C1NCC(c2ccccc2Cl)C1c1ccccc1Cl` (configuration not stated), the inhibition in assay [1] was determined as 45%; in assay [2], 33%; in assay [3], 20%; in assay [4], 6.9%.
In assay [4], `CNCCC(Oc1ccccc1OC)c1ccccc1` (configuration not stated) gave an inhibition of 54%.
As for `Clc1ccc2c(c1)[C@@H]1[C@@H](c3ccccc3)CN[C@@H]1CC2`, the inhibition in assay [1] came out at 5%; in assay [2], 10%; in assay [3], 9%.
Take `O=C1NCC(c2ccc(Cl)c(Cl)c2)C1c1ccccc1` (configuration not stated): the inhibition in assay [1] was 83%; in assay [2], 87%; in assay [3] it was 49%; in assay [4] it was 29.4%. The 50% inhibitory concentration (IC50) in assay [5] was determined as 36.6 nM; in assay [6] it was 866 nM.
With `O=C1NCC(c2ccccc2Cl)C1c1ccc(Cl)c(Cl)c1` (configuration not stated), the inhibition in assay [1] stood at 87%; in assay [2], 90%; in assay [3], 26%; in assay [4] it was 6.2%. In addition, the IC50 in assay [5] was 1730 nM; in assay [6], 2520 nM.
With `O=C1NCC(c2ccc(Cl)c(Cl)c2)C1c1ccc(Cl)cc1` (configuration not stated), the inhibition came to 76% in assay [1], 83% in assay [2], 90% in assay [3] and 50.4% in assay [4]. Moreover, the values for the IC50 in assay [7], in assay [5] and in assay [6] were 85.6 nM, 99.6 nM and 2030 nM, respectively.
`CN(C)CCCN1c2ccccc2CCc2ccc(Cl)cc21` [CLOMIPRAMINE] had an IC50 in assay [5] of 2780 nM.
Take `O=C1NCC(c2cccc(Cl)c2)C1c1ccccc1` (configuration not stated): the inhibition in assay [1] was found to be 98%; in assay [2] it was 26%; in assay [3], 55%; in assay [4], 24.3%. In assay [5], this compound showed a half-inhibitory concentration (IC50) of 22.7 nM.
In the case of `O=C1NCC(c2ccc(Cl)cc2)C1c1ccc(Cl)cc1` (configuration not stated), the inhibition in assay [1] came out at 99%; in assay [2], 75%; in assay [3] it was 84%; in assay [4], 58.1%. Also, the IC50 was 99.2 nM in assay [7], 179 nM in assay [5] and 5180 nM in assay [6].
As for `O=C1NCC(c2cccc(Cl)c2)C1c1ccc(Cl)c(Cl)c1` (configuration not stated), the inhibition in assay [1] came out at 99%; in assay [2], 78%; in assay [3], 71%; in assay [4], 40.9%. Also, the results for the IC50 in assay [7], in assay [5] and in assay [6] were 3760 nM, 172 nM and 2740 nM, respectively.
For `O=C1NCC(c2ccc(Cl)cc2)C1c1ccccc1` (configuration not stated), the inhibition in assay [1] was 99%; in assay [2], 50%; in assay [3] it was 20%; in assay [4], 30.8%. Moreover, in assay [5], 32.7 nM corresponded to half-maximal inhibition (IC50).
Regarding `O=C1NCC(c2ccc(Cl)c(Cl)c2)C1c1cccc(Cl)c1` (configuration not stated), the inhibition stood at 87% in assay [1], 93% in assay [2], 57% in assay [3] and 20.4% in assay [4]. The results for the IC50 in assay [5] and in assay [6] were 41.7 nM and 384 nM, respectively.
Consider `O=C1NCC(c2ccc(Cl)cc2)C1c1ccccc1Cl` (configuration not stated), for which the inhibition turned out to be 97% in assay [1], 74% in assay [2], 49% in assay [3] and 23.4% in assay [4]. Further, the concentration for half-maximal inhibition (IC50) came to 81.5 nM in assay [5] and 3570 nM in assay [6].
Take `O=C1NCC(c2ccc(Cl)c(Cl)c2)C1c1ccc(Cl)c(Cl)c1` (configuration not stated): the inhibition in assay [1] was determined as 85%; in assay [2], 90%; in assay [3], 42%; in assay [4], 8.8%. In addition, the IC50 in assay [5] worked out at 285 nM; in assay [6] it was 990 nM.
